pIC50: −log10 of the molar value.
How the values were obtained:
[1] = target: T1, Human NHE-1 (Homo sapiens, UniProt P19634); experiment: Inhibitory effect on NHE-1 in PS120/NHE-1 cells (recovery from intracellular acidosis, BCECF fluorescence); assay type: cell-based; conditions: human NHE-1 expressed PS120 cells; concentration at which recovery from intracellular acidosis was 50% inhibited
T1 construct: expressed in transfected cells; host or cells: CCL39-derived PS120 cells (PS120/NHE-1)
Experimental: The benzothiophen-2-carbonylguanidine derivatives of the present invention were examined for NHE-1 inhibitory effect in cells according to the following procedure.
Human NHE-1 was expressed in CCL39-derived PS120 cells. These human NHE-1 expressed cells were cultured in DMEM (Dulbecco's modified Eagle's medium) supplemented with 10% fetal bovine serum, 1% penicillin/streptomycin (100× solution), 1% L-glutamine (200 mM aqueous solution). The PS120/NHE-1 cells grown in 100 mm dishes were treated with trypsin at 80-90% confluency, followed by washing with PBS (phosphate buffer saline) once, and then once with an Na-free buffer (138.2 mM Choline chloride, 4.9 mM KCl, […]. 2H2O, 1.2 mM MgSO4.7H2O, 1.2 mM KH2PO4, 15 mM D-glucose, 20 mM HEPES, at pH 7.4). After centrifugation, the pellet was suspended in an Na-free buffer containing 20 mM NH4Cl and 10 μM BCECF-AM [2′,7′-bis(2-carboxyethyl)-5,6-carboxy-fluorescein acetoxymethyl ester] and incubated at 37° C. for 30 min in a CO2 incubator. After being harvested by centrifugation, the PS120/NHE-1 cells were washed once with an Na-free buffer to remove both NH4Cl and extracellular BCECF-AM, suspended at a density of 2.5×10^4 cells/10 μl and stored at 4° C. in a dark room until reuse. In each well of 96-well microplates, 180 μl of HBS (137 mM NaCl, 4.9 mM KCl, 1.5 mM CaCl2. 2H2O, 1.2 mM MgSO4.7H2O, 1.2 mM KH2PO4, 15 mM D-glucose, 20 mM HEPES, at pH 7.4) and 10 μl of DMSO or 10 μl of a solution of the compound (0.03˜10 μM) of the present invention in DMSO were placed and well mixed, after which 10 μl aliquots of the intracellular acidosis-induced PS120/NHE-1 cells were added thereto. 4 min after the cell addition, fluorescence (excitation: 485/444 nm, emission: 535 nm) was measured in the GEMINI-XS Microplate Spectrofluorometer (Molecular Devices). The fluorescence measured was converted into pH values using a high-K^+/nigericin technique. The cells in which intracellular acidosis was induced with NH4Cl prepulses, were recovered to normal pH values through the operation of NHE-1. The inhibitory effect of the compound against NHE-1 was evaluated as concentrations at which the recovery from the intracellular acidosis to a normal state was 50% inhibited (IC50 values), with cariporide used as a control.

[2] = system: isolated ischemic rat heart; experiment: Cardioprotective effect in isolated ischemic rat heart model (Langendorff); conditions: 10 μM, 30 min global ischemia, 30 min reperfusion
Experimental: Male rats (300 450 g, the Korea Research Institute of Chemical Technology, Experimental Animal Lab) were anesthetized by intraperitoneal injection with sodium pentobarbital at a dose of 100 mg/kg and were intravenously administered with heparine at a dose of 1000 U/kg, followed by the excision of the heart. In detail, a tracheotomy was performed and a tracheal cannula (PE 240) was inserted into the trachea for subsequent artificial ventilation with room air using a rodent ventilator. […] A catheter tip manometer connected to a latex balloon filled with a mixture of ethanol and distilled water (1:1 v/v) was inserted via an incision in the left atrium into the left ventricle, and the intraventricular pressure thereof transmitted to the latex balloon was measured isovolumetrically with a transducer and recorded on a recording system (Linearcorder mark 8 WR 3500) with the aid of an amplifier (Plugsys bridge amplifier). After stabilizing the heart for 15 min, the balloon volume was adjusted to create a left ventricular end-diastolic pressure (LVEDP) of 5 mmHg during the initial baseline period. The volume of the balloon was maintained until the end of the experiment. Baseline heart contraction function, spontaneous heart rate (HR) and coronary flow (CF) were determined from the left ventricular contraction interval. The left ventricular developed pressure (LVDP), which is regarded as an index of contractile function of the isolated heart, was calculated by subtracting left ventricular end-diastolic pressure (LVEDP) from left ventricular peak systolic pressure (LVSP). In contrast to the heart in the body, the Langendorff heart cannot be measured for cardiac output and thus, RPP (rate-pressure product), which is an important indirect indicator for cardiac performance, was calculated by multiplying heart rate (HR) by LVDP. Throughout the experiment, the temperature of the heart was maintained constant by […] in a 37° C. physiological solution to which 95% O2/5% CO2 was continuously supplied. The heart thus stabilized was perfursed for 10 min with a solution of the compounds of the invention or control drugs in DMSO (dimethylsulfoxide) diluted with HBS (final DMSO conc. 0.04%), or with the solvent only (a negative control; 0.04% DMSO) and then measured again for contractile function, heart rate (HR) and coronary flow (CF). The supply of perfusates was completely stopped for 30 min in order to induce global ischemia in the heart, followed by reperfusion for 30 min. The indices (LVDP, HR, LVEDP, and CF) were measured again. After the reperfusion, the total level of lactate dehydrogenase (LDH) in the reperfusates was measured using a kit and taken as an index of ischemic myocardial injury. A negative control group was treated with the solvent only while cariporide was used as a positive control.

[3] = system: in vivo ischemic rat heart model; experiment: Cardioprotective effect on in vivo ischemic rat heart model (coronary occlusion/reperfusion, infarct size); conditions: 0.1 mg/kg intravenous, 45 min occlusion, 90 min reperfusion
Experimental: The cardioprotective effect of the benzothiophen-2-carbonylguanidine derivatives according to the present invention in in vivo ischemic hearts was judged with regard to their antischemic effects (myocardiac infarction reduction) on rats as follows.
Each male rat (300˜450 g, the Korea Research Institute of Chemical Technology, Experimental Animal Lab) was anesthetized by intraperitoneal injection with sodium pentobarbital at a dose of 75 mg/kg. Tracheotomy was performed and a tube was inserted into the trachea for subsequent artificial ventilation with a stroke volume of 10 ml/kg and a respiratory rate of 60 breaths/min. The femoral vein and the femoral artery were cannulated for the administration of the compounds and for the measurement of blood pressures, respectively. Meanwhile, the body temperature of the rats, an important factor to influence experimental results in the ischemic myocardiac injury model, was maintained constant at 37° C. using a homeothermic blanket control unit, with a body temperature-monitoring probe inserted into the rectum. Subsequently, rats were continuously measured for mean arterial blood pressure and heart rate HR throughout the experimental time period using a Statham P23XL pressure transducer (Grass Ins., Mass., USA) and an ECG/RATE Coupler (Hugo Sachs Electronic, Germany), respectively, with all continuous changes thereof recorded by Graphtec Linearcorder WR 3310 (Hugo Sachs Electronic).
The left coronary artery was occluded according to Selye H.'s method. In detail, after the chest of each rat was partially opened by left thoracotomy, the middle finger of the left hand was pressed against the right side of the chest of the rat to thrust out the heart which was then slightly fixed with the forefinger and the thumb of the same hand. Then, immediately after the left anterior descending coronary artery (LAD) was sutured with a 5-0 silk ligature, the heart was repositioned back in the thoracic cavity with both ends of the suture positioned outside. The ends of the suture were threaded through a PE tube (PE100, 2.5 cm) and allowed to stand for 20 min for stabilization. Through the cannula inserted into the femoral vein, a vehicle or the compounds of the invention were administered and 30 min was needed for sufficient effects of the administered compounds. Cariporide was used as a control. The ends of the suture threaded through the PE tube were pulled taut with hemostatic forceps to vertically press the PE tube against the coronary artery. After occlusion for 45 min, the hemostatic forceps were removed and reperfusion was conducted for 90 min.
The coronary artery was reoccluded in the same manner as described above, followed by the intravenous injection of 2 ml of 1% Evans blue. The intravenous injection of an excess of pentobarbital killed the rats, from which the hearts were then excised. The left ventricle was removed alone from the isolated heart and transected from the cardiac apex into 5 or 6 slices. Each slice was weighed. The image of each of the heart slices was captured using a Hi-scope, a compact vision system, and analyzed for blue-stained normal areas and non-stained areas with an image analyzing program (Image Pro Plus). In each slice, the area at risk (AAR) was calculated by multiplying the ratio of the non-stained area to the total area of the slice with the weight of the slice. Sum of the individual area at risk (AAR) for each slice was divided by the total weight of the left ventricle to obtain AAR (%) according to the following mathmatical formula 1.
Separately, the heat slices were incubated in 1%. 2,3,5-triphenyltetrazolium chloride (TTC) phosphate buffer (pH 7.4), 37° C., for 15 min and fixed in 10% formalin for 20˜24 hours. In the normal area of the tissue, 2,3,5-triphenyltetrazolium chloride was reduced by the myocardial dehydrogenase in the presence of the cofactor NADH to form formazan dye, which appeared as a brick-red color. […]

T1 sequence (P19634 whole entry): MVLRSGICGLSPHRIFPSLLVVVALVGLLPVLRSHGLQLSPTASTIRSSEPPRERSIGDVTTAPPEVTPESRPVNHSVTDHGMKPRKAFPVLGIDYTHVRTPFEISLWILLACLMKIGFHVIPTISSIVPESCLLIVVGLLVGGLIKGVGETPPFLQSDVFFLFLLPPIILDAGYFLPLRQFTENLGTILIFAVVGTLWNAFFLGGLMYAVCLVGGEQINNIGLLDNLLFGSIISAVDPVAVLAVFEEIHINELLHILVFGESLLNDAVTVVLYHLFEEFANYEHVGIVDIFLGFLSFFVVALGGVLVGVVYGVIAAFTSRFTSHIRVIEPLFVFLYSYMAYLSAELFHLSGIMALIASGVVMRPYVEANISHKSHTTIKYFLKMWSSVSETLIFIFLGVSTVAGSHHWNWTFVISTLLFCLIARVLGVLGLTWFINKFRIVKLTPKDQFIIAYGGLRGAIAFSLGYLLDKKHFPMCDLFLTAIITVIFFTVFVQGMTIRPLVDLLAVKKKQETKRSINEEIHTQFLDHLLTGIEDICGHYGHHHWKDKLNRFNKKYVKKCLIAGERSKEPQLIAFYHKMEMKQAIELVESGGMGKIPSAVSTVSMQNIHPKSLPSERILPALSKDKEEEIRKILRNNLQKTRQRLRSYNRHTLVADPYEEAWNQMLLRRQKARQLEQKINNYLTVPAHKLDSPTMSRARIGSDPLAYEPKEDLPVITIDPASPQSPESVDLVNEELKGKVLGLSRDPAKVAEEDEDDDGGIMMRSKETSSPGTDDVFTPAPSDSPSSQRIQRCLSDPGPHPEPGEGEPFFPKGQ

SMILES | pIC50 [1] | LDH (free LDH level upon reperfusion) [2] [u/g] | LVEDP (left ventricular end-diastolic pressure) [2] [mmHg] | RPP (rate-pressure product (LVDP × HR) % relative to the value before ischemia induction) [2] [%] | Myocardiac infarction rate (IS/AAR, %) [3] [%]
CS(=O)(=O)O.NC(N)=NC(=O)c1cc2c(-c3ccc(F)c(Cl)c3)cccc2s1 [Example 23, [4-(3-Chloro-4-Fluorophenyl)Benzothiophene-2-Carbonyl]Guanidine Methanesulfonate] | 5.61 | 8.8 | 68.0 | 5.9 | 
CS(=O)(=O)O.NC(N)=NC(=O)c1cc2c(-c3cc(Cl)cc(Cl)c3)cccc2s1 [Example 19, [4-(3,5-Dichlorophenyl)Benzothiophene-2-Carbonyl]Guanidine Methanesulfonate] | 6.17 |  | 64.4 | 19.1 | 
CS(=O)(=O)O.Cc1cccc2sc(C(=O)N=C(N)N)cc12 [Example 35, (4-Methylbenzothiophene-2-Carbonyl)Guanidine Methanesulfonate] | 6.32 |  | 38.0 | 40.4 | 
C=Cc1cccc2sc(C(=O)N=C(N)N)cc12.CS(=O)(=O)O [Example 36, (4-Vinylbenzothiophene-2-Carbonyl)Guanidine Methanesulfonate] | 6.51 | 13.1 | 42.0 | 51.0 | 
CS(=O)(=O)O.NC(N)=NC(=O)c1cc2c(C(F)(F)F)cccc2s1 [Example 43, (4-Trifluoromethylbenzothiophene-2-Carbonyl)Guanidine Methanesulfonate] | 6.40 | 5.2 | 5.8 | 80.6 | 44.8
CS(=O)(=O)O.NC(N)=NC(=O)c1cc2c(Br)cccc2s1 [Example 1, (4-Bromobenzothiophene-2-Carbonyl)Guanidine Methanesulfonate] | 6.70 |  | 34.0 | 54.7 | 
CS(=O)(=O)O.Cc1ccc2sc(C(=O)N=C(N)N)cc2c1C [Example 47, (4,5-Dimethylbenzothiophene-2-Carbonyl)Guanidine Methanesulfonate] | 6.12 | 21.2 | 25.0 | 59.3 | 
CS(=O)(=O)O.NC(N)=NC(=O)c1cc2c(Cl)cccc2s1 [Example 32, (4-Chlorobenzothiophene-2-Carbonyl)Guanidine Methanesulfonate] | 6.70 | 8.8 | 25.3 | 60.8 | 
CS(=O)(=O)O.Cc1ccc2sc(C(=O)N=C(N)N)cc2c1Br [Example 45, (4-Bromo-5-Methylbenzothiophene-2-Carbonyl)Guanidine Methanesulfonate] | 6.54 | 22.5 | 41.8 | 50.4 | 
CS(=O)(=O)O.NC(N)=NC(=O)c1cc2c([N+](=O)[O-])cccc2s1 [Example 39, (4-Nitrobenzothiophene-2-Carbonyl)Guanidine Methanesulfonate] | 5.63 | 10.8 | 11.3 | 73.3 | 
CS(=O)(=O)O.NC(N)=NC(=O)c1cc2c(F)cccc2s1 [Example 33, (4-Fluorobenzothiophene-2-Carbonyl)Guanidine Methanesulfonate] | 5.76 | 7.0 | 37.7 | 46.6 | 
N=C(N)NC(=O)c1cc2c(I)cccc2s1 [Example 34, (4-Iodobenzothiophene-2-Carbonyl)Guanidine Methanesulfonate] | > 6.30 | 7.1 | 19.0 | 65.8 | 
